Measurements: patent publication US10168342B2, “Lipid probes and uses thereof” (THE SCRIPPS RESEARCH INSTITUTE, priority 2015, dated 2019)
Where two headings read alike, the source gives them in different places.

What was measured:
[1] = biological target: T1, AEA-DA lipid probe targets in Neuro2a cells (Mus musculus, UniProt P46638)
T1 sequence (P46638 1-218): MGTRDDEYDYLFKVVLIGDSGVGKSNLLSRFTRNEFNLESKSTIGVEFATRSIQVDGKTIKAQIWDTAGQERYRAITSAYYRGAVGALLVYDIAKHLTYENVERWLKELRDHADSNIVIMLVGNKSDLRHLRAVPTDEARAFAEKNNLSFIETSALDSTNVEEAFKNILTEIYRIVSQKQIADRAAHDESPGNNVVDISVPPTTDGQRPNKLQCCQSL

[2] = biological target: AEA-DA lipid probe targets in Neuro2a cells (Mus musculus, UniProt Q8BWM0)
Sequence of AEA-DA lipid probe targets in Neuro2a cells (Mus musculus, UniProt Q8BWM0) (Q8BWM0 whole entry): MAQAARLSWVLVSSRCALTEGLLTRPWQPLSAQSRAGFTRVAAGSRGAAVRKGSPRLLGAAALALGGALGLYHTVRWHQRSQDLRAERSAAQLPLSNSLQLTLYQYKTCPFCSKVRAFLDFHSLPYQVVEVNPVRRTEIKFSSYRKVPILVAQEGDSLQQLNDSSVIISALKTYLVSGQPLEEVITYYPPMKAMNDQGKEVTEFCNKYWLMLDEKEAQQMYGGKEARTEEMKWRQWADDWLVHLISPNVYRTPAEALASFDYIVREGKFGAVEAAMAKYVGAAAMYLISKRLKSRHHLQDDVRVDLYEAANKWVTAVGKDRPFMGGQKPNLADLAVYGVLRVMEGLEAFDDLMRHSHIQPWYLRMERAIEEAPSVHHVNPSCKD

[3] = biological target: T2, AEA-DA lipid probe targets in Neuro2a cells (Mus musculus, UniProt Q03517)
T2 sequence (Q03517 31-617): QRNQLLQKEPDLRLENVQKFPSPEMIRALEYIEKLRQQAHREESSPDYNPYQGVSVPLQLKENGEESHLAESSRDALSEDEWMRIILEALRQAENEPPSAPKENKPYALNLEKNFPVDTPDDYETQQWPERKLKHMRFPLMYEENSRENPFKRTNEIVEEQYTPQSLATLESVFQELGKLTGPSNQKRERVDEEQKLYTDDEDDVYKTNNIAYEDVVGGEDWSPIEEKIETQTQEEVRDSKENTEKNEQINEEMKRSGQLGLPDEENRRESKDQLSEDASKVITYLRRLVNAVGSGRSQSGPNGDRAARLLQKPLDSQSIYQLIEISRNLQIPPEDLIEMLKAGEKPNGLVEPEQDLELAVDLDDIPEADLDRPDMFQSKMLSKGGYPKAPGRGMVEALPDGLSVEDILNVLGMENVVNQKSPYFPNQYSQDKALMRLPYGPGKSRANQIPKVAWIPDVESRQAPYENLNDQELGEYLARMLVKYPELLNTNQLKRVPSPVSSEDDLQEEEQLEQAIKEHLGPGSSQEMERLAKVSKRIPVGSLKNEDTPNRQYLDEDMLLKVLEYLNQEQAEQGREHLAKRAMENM

[4] = biological target: T3, AEA-DA lipid probe targets in Neuro2a cells (Mus musculus, UniProt Q91V01)
T3 sequence (Q91V01 1-487): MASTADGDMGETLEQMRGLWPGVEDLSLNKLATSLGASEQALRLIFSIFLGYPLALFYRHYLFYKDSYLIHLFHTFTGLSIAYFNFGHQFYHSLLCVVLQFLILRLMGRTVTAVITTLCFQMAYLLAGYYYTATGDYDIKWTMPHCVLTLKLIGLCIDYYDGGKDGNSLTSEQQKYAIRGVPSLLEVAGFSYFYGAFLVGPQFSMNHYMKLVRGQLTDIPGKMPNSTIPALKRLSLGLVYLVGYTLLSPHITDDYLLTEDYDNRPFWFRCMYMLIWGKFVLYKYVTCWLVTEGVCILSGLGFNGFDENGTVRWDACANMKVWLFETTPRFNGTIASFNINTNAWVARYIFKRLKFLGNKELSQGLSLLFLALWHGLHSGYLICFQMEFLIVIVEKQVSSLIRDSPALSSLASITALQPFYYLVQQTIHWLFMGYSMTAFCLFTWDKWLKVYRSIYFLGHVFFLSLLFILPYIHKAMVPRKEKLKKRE

[5] = system: AEA-DA lipid probe targets in Neuro2a cells; conditions: for SILAC ratio, GM20425 (E9Q035): Neuro2a cells, AEA-DA probe
[6] = biological target: T4, AEA-DA lipid probe targets in Neuro2a cells (Mus musculus, UniProt Q8R127)
T4 sequence (Q8R127 1-429): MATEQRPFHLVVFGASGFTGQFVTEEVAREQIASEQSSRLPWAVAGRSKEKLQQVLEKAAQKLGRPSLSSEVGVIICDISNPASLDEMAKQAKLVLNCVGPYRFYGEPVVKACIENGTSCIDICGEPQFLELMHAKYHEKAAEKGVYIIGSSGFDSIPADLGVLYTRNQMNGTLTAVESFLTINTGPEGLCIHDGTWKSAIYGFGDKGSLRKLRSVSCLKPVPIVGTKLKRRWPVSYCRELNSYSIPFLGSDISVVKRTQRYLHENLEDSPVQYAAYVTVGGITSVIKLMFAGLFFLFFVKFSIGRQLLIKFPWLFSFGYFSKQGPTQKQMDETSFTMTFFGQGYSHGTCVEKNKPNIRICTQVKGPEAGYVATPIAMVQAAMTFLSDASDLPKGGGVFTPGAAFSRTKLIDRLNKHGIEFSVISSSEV

[7] = biological target: AEA-DA lipid probe targets in Neuro2a cells (Mus musculus, UniProt P62814)
Sequence of AEA-DA lipid probe targets in Neuro2a cells (Mus musculus, UniProt P62814) (P62814 whole entry): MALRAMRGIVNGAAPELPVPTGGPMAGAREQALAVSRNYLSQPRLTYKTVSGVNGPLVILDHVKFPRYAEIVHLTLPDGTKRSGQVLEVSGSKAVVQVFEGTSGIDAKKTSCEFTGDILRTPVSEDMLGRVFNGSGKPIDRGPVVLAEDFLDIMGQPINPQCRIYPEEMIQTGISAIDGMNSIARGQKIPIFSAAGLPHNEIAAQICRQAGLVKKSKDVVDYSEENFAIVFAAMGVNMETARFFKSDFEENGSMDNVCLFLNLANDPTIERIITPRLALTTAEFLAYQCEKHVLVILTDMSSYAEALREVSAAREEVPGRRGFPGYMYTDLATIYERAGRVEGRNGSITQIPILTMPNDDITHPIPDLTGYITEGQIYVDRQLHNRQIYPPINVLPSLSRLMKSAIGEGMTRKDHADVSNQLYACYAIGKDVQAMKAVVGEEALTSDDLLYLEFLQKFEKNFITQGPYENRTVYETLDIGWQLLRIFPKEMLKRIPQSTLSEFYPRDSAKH

[8] = biological target: AEA-DA lipid probe targets in Neuro2a cells (Mus musculus, UniProt Q9D8N0)
Sequence of AEA-DA lipid probe targets in Neuro2a cells (Mus musculus, UniProt Q9D8N0) (Q9D8N0 whole entry): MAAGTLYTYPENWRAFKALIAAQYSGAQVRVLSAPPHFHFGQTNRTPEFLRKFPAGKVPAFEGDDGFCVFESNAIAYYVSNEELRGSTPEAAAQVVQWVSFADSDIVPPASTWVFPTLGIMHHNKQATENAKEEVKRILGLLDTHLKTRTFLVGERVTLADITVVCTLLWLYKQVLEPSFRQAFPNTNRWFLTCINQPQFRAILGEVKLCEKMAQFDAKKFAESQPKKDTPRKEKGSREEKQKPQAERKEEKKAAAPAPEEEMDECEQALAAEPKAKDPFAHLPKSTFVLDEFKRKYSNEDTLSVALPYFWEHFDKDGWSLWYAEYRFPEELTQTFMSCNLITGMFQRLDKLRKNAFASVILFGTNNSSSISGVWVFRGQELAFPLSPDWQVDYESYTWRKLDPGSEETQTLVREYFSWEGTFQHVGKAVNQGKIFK

[9] = biological target: T5, AEA-DA lipid probe targets in Neuro2a cells (Mus musculus, UniProt Q99L04)
T5 sequence (Q99L04 1-313): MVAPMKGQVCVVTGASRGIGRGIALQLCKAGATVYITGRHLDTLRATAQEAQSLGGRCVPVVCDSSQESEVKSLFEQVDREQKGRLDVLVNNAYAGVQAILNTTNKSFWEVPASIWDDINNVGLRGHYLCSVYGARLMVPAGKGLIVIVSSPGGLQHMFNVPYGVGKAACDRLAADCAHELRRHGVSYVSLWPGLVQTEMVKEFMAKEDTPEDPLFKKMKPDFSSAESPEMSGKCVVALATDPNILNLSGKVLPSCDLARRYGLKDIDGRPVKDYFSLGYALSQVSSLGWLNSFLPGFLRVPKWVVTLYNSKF

[10] = competitor 25 μM, first Tmpo line (r51)
[11] = competitor 25 μM, second Tmpo line (r55)

Compound: CN1CCN(C(=O)c2c(-c3ccccc3)c3cc([N+](=O)[O-])ccc3n2C)CC1 [KML110, (1-Methyl-5-nitro-3-phenyl-1H-indol-2-yl)(4-methylpiperazin-1-yl)methanone]
- SILAC ratio, Rab11b ([1]; competitor 25 μM): 1.5
- SILAC ratio, Ptges2 ([2]; competitor 25 μM): 1.8
- SILAC ratio, Scg2 ([3]; competitor 25 μM): 1.4
- SILAC ratio, Lpcat3 ([4]; competitor 25 μM): 1.3
- SILAC ratio Akr1c12 ([5]; competitor 25 μM): 1.2
- SILAC ratio H2-K1 ([5]; competitor 25 μM): 1.6
- SILAC ratio Nup205 ([5]; competitor 25 μM): 1.2
- SILAC ratio Uncharacterized ([5]; competitor 25 μM): 1.1
- SILAC ratio, Gm20425 ([5]; competitor 25 μM): 1.5
- SILAC ratio, Gm20671 ([5]; competitor 25 μM): 1.4
- SILAC ratio, Tmpo [5, 10]: 1.5
- SILAC ratio, Tmpo [5, 11]: 1.5
- SILAC ratio, Sccpdh ([6]; competitor 25 μM): 2.6
- SILAC ratio Atp6v1b2 ([7]; competitor 25 μM): 1.2
- SILAC ratio Eef1g ([8]; competitor 25 μM): 1.4
- SILAC ratio, Dhrs1 ([9]; competitor 25 μM): 2.7

Compound: CN1CCN(C(=O)c2[nH]c3ccc([N+](=O)[O-])cc3c2-c2ccccc2)CC1 [MJN228, (4-Methylpiperazin-1-yl)(5-nitro-3-phenyl-1H-indol-2-yl)methanone]
- SILAC ratio, Rab11b ([1]; competitor 10 μM): 1.2
- SILAC ratio, Rab11b ([1]; competitor 25 μM): 1.6
- SILAC ratio, Rab11b ([1]; competitor 50 μM): 1.8
- SILAC ratio, Rab11b ([1]; competitor 100 μM): 2.4
- SILAC ratio, Ptges2 ([2]; competitor 10 μM): 1.3
- SILAC ratio, Ptges2 ([2]; competitor 25 μM): 1.4
- SILAC ratio, Ptges2 ([2]; competitor 100 μM): 2.3
- SILAC ratio, Scg2 ([3]; competitor 10 μM): 1.3
- SILAC ratio, Scg2 ([3]; competitor 25 μM): 1.5
- SILAC ratio, Scg2 ([3]; competitor 50 μM): 1.2
- SILAC ratio, Scg2 ([3]; competitor 100 μM): 1.1
- SILAC ratio, Lpcat3 ([4]; competitor 10 μM): 1.2
- SILAC ratio, Lpcat3 ([4]; competitor 25 μM): 1.2
- SILAC ratio, Lpcat3 ([4]; competitor 50 μM): 1.4
- SILAC ratio, Lpcat3 ([4]; competitor 100 μM): 1.5
- SILAC ratio, GM20425 (E9Q035) ([5]; competitor 25 μM): 1.7
- SILAC ratio Nup205 ([5]; competitor 10 μM): 1.0
- SILAC ratio Uncharacterized ([5]; competitor 10 μM): 1.1
- SILAC ratio, Akr1b10 ([5]; competitor 10 μM): 2.1
- SILAC ratio, Gm20425 ([5]; competitor 10 μM): 1.3
- SILAC ratio, Tmpo ([5]; competitor 10 μM, first Tmpo line (r51)): 1.1
- SILAC ratio, Tmpo ([5]; competitor 10 μM, second Tmpo line (r55)): 1.1
- SILAC ratio H2-K1 ([5]; competitor 25 μM): 1.1
- SILAC ratio Nup205 ([5]; competitor 25 μM): 1.2
- SILAC ratio Uncharacterized ([5]; competitor 25 μM): 1.6
- SILAC ratio, Gm20425 ([5]; competitor 25 μM): 1.7
- SILAC ratio, Gm20671 ([5]; competitor 25 μM): 1.4
- SILAC ratio, Tmpo [5, 10]: 1.4
- SILAC ratio, Tmpo [5, 11]: 1.4
- SILAC ratio Nup205 ([5]; competitor 50 μM): 1.1
- SILAC ratio, Akr1b10 ([5]; competitor 50 μM): 2.6
- SILAC ratio, Gm20425 ([5]; competitor 50 μM): 1.7
- SILAC ratio, Tmpo ([5]; competitor 50 μM, first Tmpo line (r51)): 1.4
- SILAC ratio, Tmpo ([5]; competitor 50 μM, second Tmpo line (r55)): 1.3
- SILAC ratio Nup205 ([5]; competitor 100 μM): 1.2
- SILAC ratio Uncharacterized ([5]; competitor 100 μM): 3.0
- SILAC ratio, Akr1b10 ([5]; competitor 100 μM): 3.2
- SILAC ratio, Gm20425 ([5]; competitor 100 μM): 2.9
- SILAC ratio, Tmpo ([5]; competitor 100 μM, first Tmpo line (r51)): 2.1
- SILAC ratio, Tmpo ([5]; competitor 100 μM, second Tmpo line (r55)): 2.0
- SILAC ratio, Sccpdh ([6]; competitor 10 μM): 1.4
- SILAC ratio, Sccpdh ([6]; competitor 25 μM): 2.1
- SILAC ratio, Sccpdh ([6]; competitor 50 μM): 3.3
- SILAC ratio, Sccpdh ([6]; competitor 100 μM): 5.9
- SILAC ratio Atp6v1b2 ([7]; competitor 10 μM): 1.2
- SILAC ratio Atp6v1b2 ([7]; competitor 25 μM): 1.1
- SILAC ratio Atp6v1b2 ([7]; competitor 50 μM): 0.9
- SILAC ratio Eef1g ([8]; competitor 10 μM): 1.1
- SILAC ratio Eef1g ([8]; competitor 25 μM): 1.1
- SILAC ratio Eef1g ([8]; competitor 50 μM): 1.0
- SILAC ratio Eef1g ([8]; competitor 100 μM): 1.3
- SILAC ratio, Dhrs1 ([9]; competitor 10 μM): 1.4
- SILAC ratio, Dhrs1 ([9]; competitor 25 μM): 1.8
- SILAC ratio, Dhrs1 ([9]; competitor 50 μM): 2.4
- SILAC ratio, Dhrs1 ([9]; competitor 100 μM): 4.4

Compound: C=CCN(C)CCCCCCOc1ccc(C(=O)c2ccc(Br)cc2)c(F)c1 [Ro 48-8071, reference compound]
- SILAC ratio, Rab11b ([1]; competitor 25 μM): 1.3
- SILAC ratio, Ptges2 ([2]; competitor 25 μM): 1.3
- SILAC ratio, Scg2 ([3]; competitor 25 μM): 1.1
- SILAC ratio, LPCAT3 (Q6P1A2) ([4]; Neuro2a cells, AEA-DA probe, competitor 25 μM): 1.1
- SILAC ratio, Lpcat3 ([4]; competitor 25 μM): 1.1
- SILAC ratio, GM20425 (E9Q035) ([5]; competitor 25 μM): 1.2
- SILAC ratio Akr1c12 ([5]; competitor 25 μM): 0.9
- SILAC ratio H2-K1 ([5]; competitor 25 μM): 0.9
- SILAC ratio Nup205 ([5]; competitor 25 μM): 0.9
- SILAC ratio Uncharacterized ([5]; competitor 25 μM): 1.0
- SILAC ratio, Gm20425 ([5]; competitor 25 μM): 1.2
- SILAC ratio, Gm20671 ([5]; competitor 25 μM): 1.3
- SILAC ratio, Tmpo [5, 10]: 1.2
- SILAC ratio, Tmpo [5, 11]: 1.2
- SILAC ratio, Sccpdh ([6]; competitor 25 μM): 1.6
- SILAC ratio Atp6v1b2 ([7]; competitor 25 μM): 0.6
- SILAC ratio Eef1g ([8]; competitor 25 μM): 0.9
- SILAC ratio, Dhrs1 ([9]; competitor 25 μM): 9.5
